{"source": "ChEMBL document CHEMBL1201862", "about": "“PubChem BioAssay data set” (2004)", "assay_in_all_cases": "inhibition of tumour cell growth, NCI panel, 48 h", "key": {"RPMI-8226": {"tested_on": "RPMI-8226"}, "SR": {"tested_on": "SR"}, "OVCAR-8": {"tested_on": "OVCAR-8"}, "SNB-78": {"tested_on": "SNB-78"}, "IGROV-1": {"tested_on": "IGROV-1"}, "SF-295": {"tested_on": "SF-295"}, "UACC-62": {"tested_on": "UACC-62"}, "A549": {"tested_on": "A549"}, "DMS-273": {"tested_on": "DMS-273"}, "SF-539": {"tested_on": "SF-539"}, "LOX IMVI": {"tested_on": "LOX IMVI"}, "OVCAR-3": {"tested_on": "OVCAR-3"}, "Malme-3M": {"tested_on": "Malme-3M"}, "SK-OV-3": {"tested_on": "SK-OV-3"}, "HOP-62": {"tested_on": "HOP-62"}, "SW-620": {"tested_on": "SW-620"}, "KM12": {"tested_on": "KM12"}, "LXFL 529": {"tested_on": "LXFL 529"}, "SN12C": {"tested_on": "SN12C"}, "786-0": {"tested_on": "786-0"}, "U-251": {"tested_on": "U-251"}, "ACHN": {"tested_on": "ACHN"}, "DLD-1": {"tested_on": "DLD-1"}, "HT-29": {"tested_on": "HT-29"}, "MOLT-4": {"tested_on": "MOLT-4"}, "HCT-116": {"tested_on": "HCT-116"}, "NCI-H226": {"tested_on": "NCI-H226"}, "SNB-19": {"tested_on": "SNB-19"}, "DMS-114": {"tested_on": "DMS-114"}, "HCC 2998": {"tested_on": "HCC 2998"}, "SK-MEL-28": {"tested_on": "SK-MEL-28"}, "SNB-75": {"tested_on": "SNB-75"}, "HCT-15": {"tested_on": "HCT-15"}, "NCI-H460": {"tested_on": "NCI-H460"}, "SF-268": {"tested_on": "SF-268"}, "M14": {"tested_on": "M14"}, "UO-31": {"tested_on": "UO-31"}, "UACC-257": {"tested_on": "UACC-257"}, "TK-10": {"tested_on": "TK-10"}, "KM-20L2": {"tested_on": "KM-20L2"}, "K562": {"tested_on": "K562"}, "COLO 205": {"tested_on": "COLO 205"}, "NCI-H522": {"tested_on": "NCI-H522"}, "CCRF-CEM": {"tested_on": "CCRF-CEM"}, "EKVX": {"tested_on": "EKVX"}, "RXF 393": {"tested_on": "RXF 393"}, "M19-MEL": {"tested_on": "M19-MEL"}}, "note": "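96-well plates; 48 h exposure; 5 concentrations. Endpoints by linear interpolation between flanking doses. Not reached: highest tested concentration assigned. At the GI50, growth is halved.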 Calls of active or inactive are those of the source. No stated cut-off is given here; in the data, active = GI50 up to about 1.1 µM and inactive = higher.", "data": [{"smiles": "CCCCc1c2c(nc3c1CC/C(=C\\c1ccc([N+](=O)[O-])cc1)C3=O)CCCC2", "values": [{"measurement": "GI50", "setting": "RPMI-8226", "value": "1.7 µM (inactive)"}, {"measurement": "GI50", "setting": "SR", "value": "2.86 µM (inactive)"}, {"measurement": "GI50", "setting": "OVCAR-8", "value": "1.88 µM (inactive)"}, {"measurement": "GI50", "setting": "SNB-78", "value": "1.96 µM (inactive)"}, {"measurement": "GI50", "setting": "IGROV-1", "value": "1.8 µM (inactive)"}, {"measurement": "GI50", "setting": "SF-295", "value": "2.1 µM (inactive)"}, {"measurement": "GI50", "setting": "UACC-62", "value": "1.61 µM (inactive)"}, {"measurement": "GI50", "setting": "A549", "value": "4.41 µM (inactive)"}, {"measurement": "GI50", "setting": "DMS-273", "value": "1.76 µM (inactive)"}, {"measurement": "GI50", "setting": "SF-539", "value": "1.79 µM (inactive)"}, {"measurement": "GI50", "setting": "LOX IMVI", "value": "1.6 µM (inactive)"}, {"measurement": "GI50", "setting": "OVCAR-3", "value": "1.76 µM (inactive)"}, {"measurement": "GI50", "setting": "Malme-3M", "value": "2 µM (inactive)"}, {"measurement": "GI50", "setting": "SK-OV-3", "value": "2.15 µM (inactive)"}, {"measurement": "GI50", "setting": "HOP-62", "value": "1.73 µM (inactive)"}, {"measurement": "GI50", "setting": "SW-620", "value": "1.69 µM (inactive)"}, {"measurement": "GI50", "setting": "KM12", "value": "1.7 µM (inactive)"}, {"measurement": "GI50", "setting": "LXFL 529", "value": "1.37 µM (inactive)"}, {"measurement": "GI50", "setting": "SN12C", "value": "1.88 µM (inactive)"}, {"measurement": "GI50", "setting": "786-0", "value": "1.43 µM (inactive)"}, {"measurement": "GI50", "setting": "U-251", "value": "1.59 µM (inactive)"}, {"measurement": "GI50", "setting": "ACHN", "value": "1.78 µM (inactive)"}, {"measurement": "GI50", "setting": "DLD-1", "value": "1.75 µM (inactive)"}, {"measurement": "GI50", "setting": "HT-29", "value": "1.33 µM (inactive)"}, {"measurement": "GI50", "setting": "MOLT-4", "value": "1.77 µM (inactive)"}, {"measurement": "GI50", "setting": "HCT-116", "value": "1.8 µM (inactive)"}, {"measurement": "GI50", "setting": "NCI-H226", "value": "2.28 µM (inactive)"}, {"measurement": "GI50", "setting": "SNB-19", "value": "1.87 µM (inactive)"}, {"measurement": "GI50", "setting": "DMS-114", "value": "2.1 µM (inactive)"}, {"measurement": "GI50", "setting": "HCC 2998", "value": "1.78 µM (inactive)"}, {"measurement": "GI50", "setting": "SK-MEL-28", "value": "1.69 µM (inactive)"}, {"measurement": "GI50", "setting": "SNB-75", "value": "8.65 µM (inactive)"}, {"measurement": "GI50", "setting": "HCT-15", "value": 0.312, "unit": "µM"}, {"measurement": "GI50", "setting": "NCI-H460", "value": "1.57 µM (inactive)"}, {"measurement": "GI50", "setting": "SF-268", "value": "1.98 µM (inactive)"}, {"measurement": "GI50", "setting": "M14", "value": "1.85 µM (inactive)"}, {"measurement": "GI50", "setting": "UO-31", "value": "2.13 µM (inactive)"}, {"measurement": "GI50", "setting": "UACC-257", "value": "2.3 µM (inactive)"}, {"measurement": "GI50", "setting": "TK-10", "value": "1.66 µM (inactive)"}, {"measurement": "GI50", "setting": "KM-20L2", "value": "2.01 µM (inactive)"}, {"measurement": "GI50", "setting": "K562", "value": "2.17 µM (inactive)"}, {"measurement": "GI50", "setting": "COLO 205", "value": "2.81 µM (inactive)"}, {"measurement": "GI50", "setting": "NCI-H522", "value": "1.51 µM (inactive)"}, {"measurement": "GI50", "setting": "CCRF-CEM", "value": "1.46 µM (inactive)"}, {"measurement": "GI50", "setting": "EKVX", "value": "11.4 µM (inactive)"}, {"measurement": "GI50", "setting": "RXF 393", "value": "1.3 µM (inactive)"}, {"measurement": "GI50", "setting": "M19-MEL", "value": "2.29 µM (inactive)"}]}]}
